Reference: US11950907B2, “Method for non-invasive monitoring of fluorescent tracer agent with diffuse reflecting medium with time-varying optical properties” (MediBeacon Inc., priority 2017, dated 2024)

Assays:
[1] = Transdermal fluorescence measurements from a patient before and after injection of the agent (FIG. 15); format: in vivo; settings: about 10 hours after injection, after peak concentration
Procedure: FIG. 15 is a graph of fluorescence measurements obtained from a patient over a period of about 10 hours after injection of an exogenous fluorescence agent (MB-102) after a pre-injection period of about 3 hours. Referring to FIG. 15, the pre-injection/baseline period 1502 is characterized by a relatively low and stable fluorescence level, likely due the absence of […] fluorescent agent in the blood of the patient. […] Without being limited to any particular theory, it is thought the injected exogenous fluorescence agent is likely equilibrated across the extra-cellular space once the decay of the fluorescence is well-described by a […] (or a line on semi-log plot).

[2] = Transdermal fluorescence monitoring of renal elimination of the agent during perturbations (Example 1); format: in vivo; settings: pig, time points later than 2 hours after agent injection, no baseline subtraction, FIG. 21B
Source text: A system similar to the system 200 described herein above was used to monitor the fluorescence produced during the renal elimination of an exogenous fluorescent agent, MB-102, using the methods described herein above, in particular the diffuse reflectance data correction method.
FIG. 21A is a graph summarizing the changes in the magnitude of the raw fluorescence signal (Flr) just prior to injection of the MB-102 fluorescent agent into a pig and for about six hours post-injection. During the post-equilibration portion, corresponding to a time of about 13:45 in FIG. 21A, the pig was subjected to a series of perturbations selected to vary the optical properties of the pig's skin and/or underlying tissues: administration of blood pressure medications to induce vasodilation/vasorestriction 2102, application of pressure to compress the tissue 2104, lateral movement of the sensor head 2106, SpO2 decrease 2108, SpO2 decrease 2110, remove/replace sensor head 2112/2114, and skin cooling 2116.
FIG. 21B is a graph summarizing the corrected intrinsic fluorescence signal (IF) corrected as described herein above with no baseline subtraction.

[3] = Absorption and emission spectra of the exogenous fluorescent agent (FIG. 3); format: physicochemical
Source text: By way of illustrative example, FIG. 3 is a graph summarizing the absorption spectra for HbO2 and Hb, as well as the absorption and emission spectra of frequency spectra of MB-102, an exogenous fluorescent agent in one aspect. Emission spectra for a blue LED light source and a green LED light source are also shown superimposed over the other spectra of FIG. 3. In this aspect, the system 200 may include a blue LED as the first light source 218, and the excitatory wavelength for the system 200 may be the isosbestic wavelength of about 450 nm. […] However, at wavelengths above about 500 nm, the HbO2/Hb spectra are less steeply sloped, and a broader band light source including, but not limited to, an LED with a bandpass filter may suffice for use as a first light source 218.
In another aspect, the excitatory wave length may be selected to enhance the contrast in light absorbance between the exogenous fluorescent agent and the chromophores within the tissues of the patient 202. […] Without being limited to any particular theory, a higher proportion of light illuminating the tissue of the patient 202 at a wavelength of about 450 nm will be absorbed by the MB-102 relative to the HbO2 and Hb, thus enhancing the efficiency of absorption by the MB-102 and reducing the intensity of light at the excitatory wavelength needed to elicit a detectable fluorescence signal. […]

## Nc1nc(C(=O)N[C@H](CO)C(=O)O)c(N)nc1C(=O)N[C@H](CO)C(=O)O [MB-102]
[1]
  time course of fluorescence after injection: relatively smooth exponential decrease
[2]
  time course of corrected intrinsic fluorescence (IF) signal: expected single-exponential decay of the signal
[3]; at the isosbestic wavelength of 452 nm
  light absorption relative to HbO2 and Hb: more than three-fold higher
[3]; emission spectrum
  emission peak wavelength: about 550 nm
